Assay results from the kinase profiling compilation of Christmann-Franck et al. (2016).

Biological target: BMPR1A (human) (UniProt P36894)
Test: KINOMEscan competition binding
Details: compound 10.0 µM

Row | SMILES | kinase still bound, per cent of control
1 | COc1cc(N2CCC(N3CCN(C)CC3)CC2)ccc1Nc1ncc(Cl)c(Nc2ccccc2S(=O)(=O)C(C)C)n1 | 0%
2 | CCOc1cc(N2CCC(N3CCCCC3)CC2)ccc1Nc1nc(Nc2ccccc2S(=O)(=O)C(C)C)c2cn[nH]c2n1 | 100%

Biological target: CDC42BPG (human) (UniProt Q6DT37)
Test: KINOMEscan competition binding
Details: compound 10.0 µM

Row | SMILES | kinase still bound, per cent of control
3 | CCN1CCN(Cc2ccc(NC(=O)c3ccc(C)c(/C=C/c4cnc(Nc5cc(N6CCNCC6)nc(C)n5)cn4)c3)cc2C(F)(F)F)CC1 | 100%
4 | COc1cc(N2CCC(N3CCN(C)CC3)CC2)ccc1Nc1ncc(Cl)c(Nc2ccccc2S(=O)(=O)C(C)C)n1 | 23%
5 | CCOc1cc(N2CCC(N3CCCCC3)CC2)ccc1Nc1nc(Nc2ccccc2S(=O)(=O)C(C)C)c2cn[nH]c2n1 | 100%

Biological target: ULK2 (human) (UniProt Q8IYT8)
Test: KINOMEscan competition binding
Details: compound 10.0 µM

Row | SMILES | kinase still bound, per cent of control
6 | CCN1CCN(Cc2ccc(NC(=O)c3ccc(C)c(/C=C/c4cnc(Nc5cc(N6CCNCC6)nc(C)n5)cn4)c3)cc2C(F)(F)F)CC1 | 32%
7 | COc1cc(N2CCC(N3CCN(C)CC3)CC2)ccc1Nc1ncc(Cl)c(Nc2ccccc2S(=O)(=O)C(C)C)n1 | 1.1%
8 | CCOc1cc(N2CCC(N3CCCCC3)CC2)ccc1Nc1nc(Nc2ccccc2S(=O)(=O)C(C)C)c2cn[nH]c2n1 | 3.4%

Biological target: RPS6KA6 KD2 (human) (UniProt Q9UK32)
Test: KINOMEscan competition binding
Details: compound 10.0 µM

Row | SMILES | kinase still bound, per cent of control
9 | CCN1CCN(Cc2ccc(NC(=O)c3ccc(C)c(/C=C/c4cnc(Nc5cc(N6CCNCC6)nc(C)n5)cn4)c3)cc2C(F)(F)F)CC1 | 11%
10 | COc1cc(N2CCC(N3CCN(C)CC3)CC2)ccc1Nc1ncc(Cl)c(Nc2ccccc2S(=O)(=O)C(C)C)n1 | 1.8%
11 | CCOc1cc(N2CCC(N3CCCCC3)CC2)ccc1Nc1nc(Nc2ccccc2S(=O)(=O)C(C)C)c2cn[nH]c2n1 | 2.1%

Biological target: TYK2 JH2 pseudokinase (human) (UniProt P29597)
Test: KINOMEscan competition binding
Details: compound 10.0 µM

Chain of TYK2 JH2 pseudokinase (human) (P29597 whole entry, looked up): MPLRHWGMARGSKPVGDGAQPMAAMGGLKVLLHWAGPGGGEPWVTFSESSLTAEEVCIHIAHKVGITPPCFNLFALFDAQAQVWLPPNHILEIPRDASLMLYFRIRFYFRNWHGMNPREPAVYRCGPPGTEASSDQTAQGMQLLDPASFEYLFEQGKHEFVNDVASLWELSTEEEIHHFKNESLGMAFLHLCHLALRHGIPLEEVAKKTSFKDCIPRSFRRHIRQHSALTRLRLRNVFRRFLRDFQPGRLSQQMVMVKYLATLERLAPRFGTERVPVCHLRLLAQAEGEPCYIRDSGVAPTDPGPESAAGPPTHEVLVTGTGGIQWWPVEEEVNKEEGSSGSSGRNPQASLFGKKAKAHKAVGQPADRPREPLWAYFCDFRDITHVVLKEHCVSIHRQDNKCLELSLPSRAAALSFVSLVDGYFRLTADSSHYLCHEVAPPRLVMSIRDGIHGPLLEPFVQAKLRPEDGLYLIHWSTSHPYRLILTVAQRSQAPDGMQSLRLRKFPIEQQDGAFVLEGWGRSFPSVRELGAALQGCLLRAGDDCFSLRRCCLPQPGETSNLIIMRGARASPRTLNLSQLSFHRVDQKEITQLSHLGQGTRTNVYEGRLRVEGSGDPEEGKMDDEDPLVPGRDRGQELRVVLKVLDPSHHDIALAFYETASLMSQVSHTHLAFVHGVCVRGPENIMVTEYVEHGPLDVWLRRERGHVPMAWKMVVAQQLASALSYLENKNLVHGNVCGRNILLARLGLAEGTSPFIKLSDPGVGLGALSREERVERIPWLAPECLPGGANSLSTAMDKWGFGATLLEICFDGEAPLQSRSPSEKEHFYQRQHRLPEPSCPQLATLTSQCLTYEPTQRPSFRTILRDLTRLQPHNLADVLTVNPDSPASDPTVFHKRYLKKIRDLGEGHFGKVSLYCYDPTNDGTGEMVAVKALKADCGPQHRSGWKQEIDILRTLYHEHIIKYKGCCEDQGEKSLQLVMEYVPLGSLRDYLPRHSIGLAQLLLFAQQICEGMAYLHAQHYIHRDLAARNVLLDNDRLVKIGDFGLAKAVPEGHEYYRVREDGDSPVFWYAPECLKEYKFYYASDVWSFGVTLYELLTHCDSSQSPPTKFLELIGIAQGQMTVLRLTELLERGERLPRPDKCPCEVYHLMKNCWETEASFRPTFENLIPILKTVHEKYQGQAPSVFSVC

Row | SMILES | kinase still bound, per cent of control
12 | CCN1CCN(Cc2ccc(NC(=O)c3ccc(C)c(/C=C/c4cnc(Nc5cc(N6CCNCC6)nc(C)n5)cn4)c3)cc2C(F)(F)F)CC1 | 100%
13 | COc1cc(N2CCC(N3CCN(C)CC3)CC2)ccc1Nc1ncc(Cl)c(Nc2ccccc2S(=O)(=O)C(C)C)n1 | 11%
14 | CCOc1cc(N2CCC(N3CCCCC3)CC2)ccc1Nc1nc(Nc2ccccc2S(=O)(=O)C(C)C)c2cn[nH]c2n1 | 63%
15 | CCN1CCN(Cc2ccc(NC(=O)c3ccc(C)c(Oc4ccnc5[nH]ccc45)c3)cc2C(F)(F)F)CC1 | 0%

Biological target: CDC42BPB (human) (UniProt Q9Y5S2)
Test: KINOMEscan competition binding
Details: compound 10.0 µM

Row | SMILES | kinase still bound, per cent of control
16 | CCN1CCN(Cc2ccc(NC(=O)c3ccc(C)c(/C=C/c4cnc(Nc5cc(N6CCNCC6)nc(C)n5)cn4)c3)cc2C(F)(F)F)CC1 | 100%
17 | COc1cc(N2CCC(N3CCN(C)CC3)CC2)ccc1Nc1ncc(Cl)c(Nc2ccccc2S(=O)(=O)C(C)C)n1 | 25%
18 | CCOc1cc(N2CCC(N3CCCCC3)CC2)ccc1Nc1nc(Nc2ccccc2S(=O)(=O)C(C)C)c2cn[nH]c2n1 | 100%

Biological target: MAP2K1 (human) (UniProt Q02750)
Test: KINOMEscan competition binding
Details: compound 10.0 µM

Chain of MAP2K1 (human) (Q02750 whole entry, looked up): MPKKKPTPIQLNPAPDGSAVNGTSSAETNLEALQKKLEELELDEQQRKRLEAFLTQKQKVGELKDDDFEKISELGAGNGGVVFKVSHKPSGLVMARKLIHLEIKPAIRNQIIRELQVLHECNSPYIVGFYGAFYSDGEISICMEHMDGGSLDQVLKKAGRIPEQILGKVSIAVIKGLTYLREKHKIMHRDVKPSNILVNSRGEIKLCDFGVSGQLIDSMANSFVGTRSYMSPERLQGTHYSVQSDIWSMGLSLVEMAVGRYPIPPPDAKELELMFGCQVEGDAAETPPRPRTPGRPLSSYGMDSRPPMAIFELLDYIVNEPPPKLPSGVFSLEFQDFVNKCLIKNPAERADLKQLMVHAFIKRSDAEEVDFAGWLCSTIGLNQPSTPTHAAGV

Row | SMILES | kinase still bound, per cent of control
19 | CCN1CCN(Cc2ccc(NC(=O)c3ccc(C)c(/C=C/c4cnc(Nc5cc(N6CCNCC6)nc(C)n5)cn4)c3)cc2C(F)(F)F)CC1 | 35%
20 | COc1cc(N2CCC(N3CCN(C)CC3)CC2)ccc1Nc1ncc(Cl)c(Nc2ccccc2S(=O)(=O)C(C)C)n1 | 3.6%
21 | CCOc1cc(N2CCC(N3CCCCC3)CC2)ccc1Nc1nc(Nc2ccccc2S(=O)(=O)C(C)C)c2cn[nH]c2n1 | 100%

Biological target: EPHA5 (human) (UniProt P54756)
Test: KINOMEscan competition binding
Details: compound 10.0 µM

Chain of EPHA5 (human) (P54756 whole entry, looked up): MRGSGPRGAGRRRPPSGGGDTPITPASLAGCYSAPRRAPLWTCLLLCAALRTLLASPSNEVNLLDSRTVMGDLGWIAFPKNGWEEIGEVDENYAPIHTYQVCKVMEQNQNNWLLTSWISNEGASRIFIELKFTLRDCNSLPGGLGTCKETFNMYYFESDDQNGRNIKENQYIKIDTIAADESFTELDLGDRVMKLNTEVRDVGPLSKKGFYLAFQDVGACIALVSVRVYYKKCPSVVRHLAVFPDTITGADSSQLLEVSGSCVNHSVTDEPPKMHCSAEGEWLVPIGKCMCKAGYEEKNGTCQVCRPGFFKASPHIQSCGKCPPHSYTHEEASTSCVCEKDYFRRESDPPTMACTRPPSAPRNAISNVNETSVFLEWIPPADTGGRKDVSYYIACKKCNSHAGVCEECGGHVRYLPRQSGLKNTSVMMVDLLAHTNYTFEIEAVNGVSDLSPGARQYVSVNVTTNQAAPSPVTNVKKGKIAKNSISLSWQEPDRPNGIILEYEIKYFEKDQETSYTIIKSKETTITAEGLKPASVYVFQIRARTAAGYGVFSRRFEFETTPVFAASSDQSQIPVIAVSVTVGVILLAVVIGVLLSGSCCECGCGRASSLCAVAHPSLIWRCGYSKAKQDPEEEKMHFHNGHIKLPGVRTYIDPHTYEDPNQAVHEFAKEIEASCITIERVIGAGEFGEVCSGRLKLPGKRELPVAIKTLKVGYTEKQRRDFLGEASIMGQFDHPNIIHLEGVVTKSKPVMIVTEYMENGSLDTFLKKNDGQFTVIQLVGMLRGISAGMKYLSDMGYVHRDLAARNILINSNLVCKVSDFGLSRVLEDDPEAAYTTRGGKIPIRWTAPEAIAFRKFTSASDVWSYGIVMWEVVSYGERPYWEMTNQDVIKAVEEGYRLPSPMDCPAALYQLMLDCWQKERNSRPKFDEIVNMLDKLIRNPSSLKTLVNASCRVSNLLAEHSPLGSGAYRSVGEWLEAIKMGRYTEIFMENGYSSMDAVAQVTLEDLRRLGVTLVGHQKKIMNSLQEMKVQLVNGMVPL

Row | SMILES | kinase still bound, per cent of control
22 | CCN1CCN(Cc2ccc(NC(=O)c3ccc(C)c(/C=C/c4cnc(Nc5cc(N6CCNCC6)nc(C)n5)cn4)c3)cc2C(F)(F)F)CC1 | 20%
23 | COc1cc(N2CCC(N3CCN(C)CC3)CC2)ccc1Nc1ncc(Cl)c(Nc2ccccc2S(=O)(=O)C(C)C)n1 | 21%
24 | CCOc1cc(N2CCC(N3CCCCC3)CC2)ccc1Nc1nc(Nc2ccccc2S(=O)(=O)C(C)C)c2cn[nH]c2n1 | 100%

Biological target: RPS6KA1 KD1 (human) (UniProt Q15418)
Test: KINOMEscan competition binding
Details: compound 10.0 µM

Chain of RPS6KA1 KD1 (human) (Q15418 whole entry, looked up): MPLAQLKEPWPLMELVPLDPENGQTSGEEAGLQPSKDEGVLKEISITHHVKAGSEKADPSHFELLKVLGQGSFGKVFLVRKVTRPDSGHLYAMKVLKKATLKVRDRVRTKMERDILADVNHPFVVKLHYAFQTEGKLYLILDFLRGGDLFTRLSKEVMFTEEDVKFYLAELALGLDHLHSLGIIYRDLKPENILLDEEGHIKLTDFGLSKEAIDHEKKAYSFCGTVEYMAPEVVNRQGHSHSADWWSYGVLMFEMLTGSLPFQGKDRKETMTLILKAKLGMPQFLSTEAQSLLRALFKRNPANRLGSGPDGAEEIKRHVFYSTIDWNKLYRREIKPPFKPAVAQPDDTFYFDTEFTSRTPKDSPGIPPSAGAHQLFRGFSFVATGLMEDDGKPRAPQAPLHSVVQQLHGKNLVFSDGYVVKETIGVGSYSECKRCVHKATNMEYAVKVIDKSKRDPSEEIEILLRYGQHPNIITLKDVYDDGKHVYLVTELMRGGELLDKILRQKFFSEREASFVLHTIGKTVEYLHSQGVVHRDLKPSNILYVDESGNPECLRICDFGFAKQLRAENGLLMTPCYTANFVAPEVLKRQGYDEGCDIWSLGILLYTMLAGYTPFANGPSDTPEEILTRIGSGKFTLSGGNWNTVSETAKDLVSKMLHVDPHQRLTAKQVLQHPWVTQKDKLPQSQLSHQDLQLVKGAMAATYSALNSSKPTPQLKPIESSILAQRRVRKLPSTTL

Row | SMILES | kinase still bound, per cent of control
25 | CCN1CCN(Cc2ccc(NC(=O)c3ccc(C)c(/C=C/c4cnc(Nc5cc(N6CCNCC6)nc(C)n5)cn4)c3)cc2C(F)(F)F)CC1 | 100%
26 | COc1cc(N2CCC(N3CCN(C)CC3)CC2)ccc1Nc1ncc(Cl)c(Nc2ccccc2S(=O)(=O)C(C)C)n1 | 0.25%
27 | CCOc1cc(N2CCC(N3CCCCC3)CC2)ccc1Nc1nc(Nc2ccccc2S(=O)(=O)C(C)C)c2cn[nH]c2n1 | 1.8%

Test system: EGFR (human), P00533 [P753S; 747-752 del]
Test: KINOMEscan competition binding
Details: compound 10.0 µM

Row | SMILES | kinase still bound, per cent of control
28 | CCN1CCN(Cc2ccc(NC(=O)c3ccc(C)c(/C=C/c4cnc(Nc5cc(N6CCNCC6)nc(C)n5)cn4)c3)cc2C(F)(F)F)CC1 | 0.2%
29 | COc1cc(N2CCC(N3CCN(C)CC3)CC2)ccc1Nc1ncc(Cl)c(Nc2ccccc2S(=O)(=O)C(C)C)n1 | 0.95%
30 | CCOc1cc(N2CCC(N3CCCCC3)CC2)ccc1Nc1nc(Nc2ccccc2S(=O)(=O)C(C)C)c2cn[nH]c2n1 | 40%
31 | CCN1CCN(Cc2ccc(NC(=O)c3ccc(C)c(Oc4ccnc5[nH]ccc45)c3)cc2C(F)(F)F)CC1 | 1.2%

Biological target: IGF1R (human) (UniProt P08069)
Test: KINOMEscan competition binding
Details: compound 10.0 µM

Chain of IGF1R (human) (P08069 whole entry, looked up): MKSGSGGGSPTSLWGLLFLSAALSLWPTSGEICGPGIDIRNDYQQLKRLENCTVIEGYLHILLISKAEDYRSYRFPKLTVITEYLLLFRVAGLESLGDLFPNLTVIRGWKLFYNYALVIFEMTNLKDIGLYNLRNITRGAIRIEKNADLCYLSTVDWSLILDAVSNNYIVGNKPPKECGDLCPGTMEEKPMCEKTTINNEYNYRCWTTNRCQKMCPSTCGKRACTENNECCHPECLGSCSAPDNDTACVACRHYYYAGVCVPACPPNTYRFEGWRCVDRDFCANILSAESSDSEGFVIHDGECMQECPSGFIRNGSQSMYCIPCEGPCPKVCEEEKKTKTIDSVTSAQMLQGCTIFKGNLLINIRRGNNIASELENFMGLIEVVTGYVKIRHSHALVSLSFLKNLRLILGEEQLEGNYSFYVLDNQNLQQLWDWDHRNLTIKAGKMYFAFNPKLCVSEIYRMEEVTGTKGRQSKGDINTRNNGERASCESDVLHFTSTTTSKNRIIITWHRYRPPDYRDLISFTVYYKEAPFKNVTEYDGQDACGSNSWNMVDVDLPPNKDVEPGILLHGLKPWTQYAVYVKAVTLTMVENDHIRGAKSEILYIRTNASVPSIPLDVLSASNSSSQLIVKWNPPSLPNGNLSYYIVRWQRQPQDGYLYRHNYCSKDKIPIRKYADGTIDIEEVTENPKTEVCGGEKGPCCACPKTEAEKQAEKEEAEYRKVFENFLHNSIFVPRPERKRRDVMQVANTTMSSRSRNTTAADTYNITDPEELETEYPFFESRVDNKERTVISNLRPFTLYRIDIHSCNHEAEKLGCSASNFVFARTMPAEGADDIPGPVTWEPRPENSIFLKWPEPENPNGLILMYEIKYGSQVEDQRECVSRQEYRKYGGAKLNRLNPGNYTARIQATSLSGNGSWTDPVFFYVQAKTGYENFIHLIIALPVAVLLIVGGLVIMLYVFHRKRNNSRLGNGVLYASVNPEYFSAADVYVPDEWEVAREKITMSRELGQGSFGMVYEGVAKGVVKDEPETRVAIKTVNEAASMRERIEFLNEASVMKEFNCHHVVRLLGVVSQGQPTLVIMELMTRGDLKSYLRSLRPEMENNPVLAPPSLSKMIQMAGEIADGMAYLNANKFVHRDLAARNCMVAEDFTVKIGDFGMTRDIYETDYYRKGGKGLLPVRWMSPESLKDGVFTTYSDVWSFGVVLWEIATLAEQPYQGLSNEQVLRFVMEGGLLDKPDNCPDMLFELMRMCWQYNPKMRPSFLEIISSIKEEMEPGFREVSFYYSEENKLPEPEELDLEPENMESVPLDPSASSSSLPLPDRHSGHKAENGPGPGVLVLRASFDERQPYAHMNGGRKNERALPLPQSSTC

Row | SMILES | kinase still bound, per cent of control
32 | CCN1CCN(Cc2ccc(NC(=O)c3ccc(C)c(/C=C/c4cnc(Nc5cc(N6CCNCC6)nc(C)n5)cn4)c3)cc2C(F)(F)F)CC1 | 87%
33 | COc1cc(N2CCC(N3CCN(C)CC3)CC2)ccc1Nc1ncc(Cl)c(Nc2ccccc2S(=O)(=O)C(C)C)n1 | 0%
34 | CCOc1cc(N2CCC(N3CCCCC3)CC2)ccc1Nc1nc(Nc2ccccc2S(=O)(=O)C(C)C)c2cn[nH]c2n1 | 0.25%

Biological target: MAPK12 (human) (UniProt P53778)
Test: KINOMEscan competition binding
Details: compound 10.0 µM

Chain of MAPK12 (human) (P53778 whole entry, looked up): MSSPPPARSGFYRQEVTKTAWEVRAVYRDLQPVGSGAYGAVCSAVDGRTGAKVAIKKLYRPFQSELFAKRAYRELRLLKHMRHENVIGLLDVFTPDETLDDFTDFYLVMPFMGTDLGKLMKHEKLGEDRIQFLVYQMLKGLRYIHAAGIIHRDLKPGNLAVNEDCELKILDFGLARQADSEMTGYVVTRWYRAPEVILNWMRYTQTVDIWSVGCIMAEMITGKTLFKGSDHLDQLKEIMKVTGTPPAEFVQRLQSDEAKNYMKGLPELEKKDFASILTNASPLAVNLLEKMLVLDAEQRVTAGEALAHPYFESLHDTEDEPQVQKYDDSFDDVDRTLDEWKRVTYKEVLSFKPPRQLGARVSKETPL

Row | SMILES | kinase still bound, per cent of control
35 | CCN1CCN(Cc2ccc(NC(=O)c3ccc(C)c(/C=C/c4cnc(Nc5cc(N6CCNCC6)nc(C)n5)cn4)c3)cc2C(F)(F)F)CC1 | 39%
